Values quoted from earlier work as cited in patent US6756057B2, “Amoxicillin and potassium clavulanate dosage form” (Beecham Pharmaceuticals (pte) Limited, priority 2000, dated 2004).

Settings: in vivo

- elimination half-life: about 1.3 hours
Compound: CC1(C)S[C@@H]2[C@H](NC(=O)[C@H](N)c3ccc(O)cc3)C(=O)N2[C@H]1C(=O)O [amoxicillin]
